Experimental data reported in EPA's ToxValDB 9.5 (doi:10.2903/j.efsa.2008.168r).

How the values were obtained:
Anatidae = settings: oral, mortality
Apis mellifera = settings: acute; duration: 48 hours; oral; unspecified; mortality
Bibionidae = settings: chronic/long-term; duration: 26 days
Canidae = settings: chronic; duration: 1 years; oral; Dog Other; body weight
Coturnix japonica = settings: acute, oral, mortality
Daphnia magna = settings: chronic/long-term; duration: 21 days; reproduction
Folsomia candida = settings: chronic/long-term
Mus musculus = settings: chronic; duration: 2 years; body weight
Oncorhynchus mykiss = settings: acute; duration: 96 hours; mortality
Oryctolagus sp. = settings: reproduction developmental; body weight
Pimephales promelas = settings: chronic/long-term; duration: 32 days
Aphidius rhopalosiphi = assay: LR50; higher = less toxic; settings: not reported; mortality

Nc1nc(N)nc(NC2CC2)n1 [Cyromazine]
LD50 (Anas platyrhynchos; acute, oral, unspecified, mortality): > 2510 mg/kg
NOEL (Anas platyrhynchos; reproductive): 38.3 mg/kg-day
LC50 (Anas platyrhynchos; short-term, oral, feed, mortality): > 526 mg/kg-day
LD50 (Anatidae; acute, unspecified): > 1000 mg/kg
LC50 (Anatidae; short-term, feed): > 1120 mg/kg-day
LD50 (Apis mellifera): 186 µg/piece
NOEC (Bibionidae): 0.025 mg/L
NOAEL (Canidae): 5.74 mg/kg-day
LC50 (Colinus virginianus; acute, oral, diet, mortality): > 1370 mg/kg-day
LD50 (Colinus virginianus; acute, oral, mortality): 1780 mg/kg
NOEL (Colinus virginianus; reproduction developmental): 110 mg/kg-day
LC50 (Coturnix japonica; diet): > 683 mg/kg-day
LD50 (Coturnix japonica): 2340 mg/kg
NOEC (Daphnia magna): 0.31 mg/L
NOEC (Folsomia candida): 9.6 mg/kg
NOAEL (Mus musculus): 6.5 mg/kg-day
LC50 (Oncorhynchus mykiss): > 100 µg/mL
NOAEL (Oryctolagus sp.): 10 mg/kg-day
NOEC (Pimephales promelas): 14 mg/L
LD50 (Rattus norvegicus; acute, mortality): 3390 mg/kg
NOAEL (Rattus norvegicus; reproduction developmental, reproduction): 30 mg/kg-day
LC50 (Tagia sp.; acute, duration: 14 days, mortality): > 1000 mg/kg
NOEC (Tagia sp.; chronic/long-term, duration: 56 days, reproduction): 333 mg/kg
LR50 (Aphidius rhopalosiphi): ≥ 891 g/ha
